Data reported in patent US7332631B2, “Fc receptor modulating compounds and compositions” (Trillium Therapeutics Inc., priority 2002, dated 2008).
Where “and” joins values, the source holds several entries; their conditions need not be identical. Equal values may be shown once. Read-outs that look alike come from different tables or passages of the source. Peptide text beside a SMILES is read from it. * marks the point of attachment. Cbz = O=C(OCc1ccccc1)*

Assays:
FcγRIIa = target: T1, FcγRIIa (Homo sapiens, UniProt P12318); experiment: FACS assay of activation of human platelets by heat aggregated IgG (HAGG), P-Selectin expression; assay type: cell-based; details: for inhibition at 500 µg/mL / % Inhibition of platelet Activation: primary screen, single concentration of inhibitor 500 μg/ml, HAGG 40 μg/ml, several values = repeat determinations; for inhibition at 500 µg/mL: read-out: % Inhibition of platelet Activation
T1 construct: endogenous in cells; host or cells: washed human platelets
T1 sequence (P12318 34-317): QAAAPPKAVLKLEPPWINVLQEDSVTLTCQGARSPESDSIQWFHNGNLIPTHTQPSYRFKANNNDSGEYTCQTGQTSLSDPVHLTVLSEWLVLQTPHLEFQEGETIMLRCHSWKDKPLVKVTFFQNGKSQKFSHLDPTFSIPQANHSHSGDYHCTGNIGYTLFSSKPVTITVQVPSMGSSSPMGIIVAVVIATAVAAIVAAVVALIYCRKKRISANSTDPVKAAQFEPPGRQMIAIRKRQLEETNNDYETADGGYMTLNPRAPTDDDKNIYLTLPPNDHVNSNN
Description: The compounds of Table 1 were screened in a FcγRIIa dependent platelet activation assay and/or aggregation assay where platelets are activated using heat aggregated human immunoglobulin G as an immune complex. Compounds inhibiting this process were then tested for specificity. Note that the platelets were used as the target as the only Fc receptor expressed on these cells is FcγRIIa. In addition, they are very difficult to inhibit and therefore this assists in identifying compounds with reasonable potency.
The compounds of the present invention were initially screened in a rapid FACS screening assay, measuring activation of human platelets by heat aggregated IgG. […] In addition, platelets are very sensitive to a range of stimuli and activate rapidly. Activation is measured by the appearance of the protein P-Selectin on the platelet membrane after exposure to various stimuli. The stimuli were heat aggregated with IgG and as specificity controls, collagen or thrombin.
Specifically, this assay utilises washed platelets and heat aggregated IgG (HAGG) as an immune complex (agonist) to activate and crosslink FcγRIIa. Because this is a primary screen a single concentration of small molecule inhibitor is added to the platelets (final concentration of 500 μg/ml) and allowed to incubate for 30 minutes. Heat Aggregated IgG (HAGG) (40 μg/ml) is then added to the platelets and allowed to incubate for 30 minutes. Paraformaldehyde is added to the platelets for 30 minutes prior to washing. Anti-P-Selectin (FITC conjugated) and Anti-CD41 (PE conjugated) are added and the platelets are then screened by FACS to detect expression of P-Selectin, a marker of platelet activation and CD41, which is expressed by all viable platelets.
In summary, for each compound tested the activity was measured as a function of inhibition of platelet activation and/or platelet aggregation as detailed above. Specificity is defined as specific inhibition of immune complex induced platelet activation but with no effect on arachidonic acid induced activation (and where tested no effect on thrombin, collagen or ADP induced activation).
The compounds were titrated and evaluated for capacity to prevent aggregated IgG induction of p-selectin expression as a measure of activation.

HSA-FcγRIIa = HSA-FcγRIIa (Homo sapiens, UniProt P02768+P12318); experiment: ELISA Inhibition Assay: inhibition of human IgG complex binding to plate-bound HSA-FcγRIIa; details: HSA-FcγRIIa 5 μg/ml on plate, human IgG complex 0.2 μg/ml
Description: The compounds may also be screened using an ELISA inhibition assay to detect the blockade of IgG interaction with FcγRIIa.
Compounds were also screened using an ELISA Inhibition Assay. Human Serum Albumin genetically fused to FcγRIIa (HSA-FcγRIIa) was bound to an ELISA plate at a concentration of 5 μg/ml. The small molecule inhibitors were titrated from a starting concentration of 5 mg/ml and allowed to incubate in the presence of the receptor. A human IgG complex (0.2 μg/ml) is then added to the plate and the extent of inhibition of IgG binding by the small molecule inhibitors was measured using HRP labelled anti-human antibody.

[1] = Solubility remark in the platelet activation screen; assay type: physicochemical; details: printed instead of a % inhibition value
[2] = in vitro testing, summary table, read-out: IC50 Platelet Inhibition
[3] = washed human platelets, HAGG as agonist, several values in a cell = repeat determinations, '(ICnn)' after a '<' bound = inhibition level at that concentration, read-out: Concentration at 50% inhibition of platelet activation by HAGG

Sequence of HSA-FcγRIIa (P02768+P12318 fused): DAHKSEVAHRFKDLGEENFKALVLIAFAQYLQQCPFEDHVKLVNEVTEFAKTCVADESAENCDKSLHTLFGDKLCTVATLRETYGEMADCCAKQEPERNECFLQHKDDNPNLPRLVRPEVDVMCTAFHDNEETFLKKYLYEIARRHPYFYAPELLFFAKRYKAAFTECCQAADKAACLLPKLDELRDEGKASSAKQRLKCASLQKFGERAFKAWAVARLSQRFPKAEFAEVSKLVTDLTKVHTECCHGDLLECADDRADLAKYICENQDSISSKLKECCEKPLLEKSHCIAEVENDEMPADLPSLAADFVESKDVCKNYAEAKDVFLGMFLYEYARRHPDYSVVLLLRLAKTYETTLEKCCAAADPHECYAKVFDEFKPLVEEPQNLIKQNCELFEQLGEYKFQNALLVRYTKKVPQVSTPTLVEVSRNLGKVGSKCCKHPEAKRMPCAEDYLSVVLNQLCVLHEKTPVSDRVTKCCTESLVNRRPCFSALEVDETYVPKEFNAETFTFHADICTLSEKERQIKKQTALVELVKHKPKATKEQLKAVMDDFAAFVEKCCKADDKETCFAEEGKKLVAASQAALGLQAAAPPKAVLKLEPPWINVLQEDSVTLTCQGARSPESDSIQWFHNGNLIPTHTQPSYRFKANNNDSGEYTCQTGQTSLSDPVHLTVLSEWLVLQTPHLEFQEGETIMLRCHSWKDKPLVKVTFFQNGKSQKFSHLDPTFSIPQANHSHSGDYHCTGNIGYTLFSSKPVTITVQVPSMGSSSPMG

SMILES	IC50 (FcγRIIa; [2]) [µM]	IC50 (FcγRIIa; [3])	IC50 (HSA-FcγRIIa) [µM]	other results
O=C(O)c1sc2cc([N+](=O)[O-])ccc2c1Cl [Compound 026, 3-Chloro-6-nitro-1-benzo[b]thiophene-2-carboxylic acid]	780	100 µM	17500	–
O=C(O)c1cccc([S+]([O-])c2cccc(C(=O)O)c2)c1 [Compound 032, 3-[(3-Carboxyphenyl)sulfinyl]benzenecarboxylic acid]	–	70 µM	2800	IC50 Platelet Inhibition (FcγRIIa; in vitro testing, summary table): -'ve
O=C(O)c1cccc(/C=N/c2cccc(C(=O)O)c2)c1 [Compound 076]	–	–	–	inhibition at 500 µg/mL (FcγRIIa): 13%
O=C(O)c1cccc(/C=N/Nc2cc(Cl)cc(Cl)c2)c1 [Compound 080]	–	–	–	Solubility (word printed in the % inhibition column) [1]: Insoluble
O=C(O)c1ccc(/C=N/c2cccc(C(=O)O)c2)cc1 [Compound 081]	–	–	–	inhibition at 500 µg/mL (FcγRIIa): 83%
O=C(O)c1cccc(CNc2cccc(C(=O)O)c2)c1 [Compound 100]	–	–	–	inhibition at 500 µg/mL (FcγRIIa): 7%
O=C(O)c1cccc(/C=N/c2cc(C(=O)O)cc(C(=O)O)c2)c1 [Compound 114]	–	–	–	inhibition at 500 µg/mL (FcγRIIa): 8%
O=C(Nc1cccc(C(=O)O)c1)Nc1cccc(C(=O)O)c1 [Compound 192]	–	–	–	% Inhibition of platelet Activation (FcγRIIa): 19%; inhibition at 500 µg/mL (FcγRIIa): 22%
O=C(O)c1cccc(/C=N/Nc2cccc(C(=O)O)c2)c1 [Compound 200]	–	–	–	% Inhibition of platelet Activation (FcγRIIa): 98% and 54% and 95%
O=C(O)CCNC(=O)OCc1ccccc1 [Compound 233]	–	–	–	% Inhibition of platelet Activation (FcγRIIa): 74%
CC(NC(=O)CNC(=O)CNC(=O)OCc1ccccc1)C(=O)O (stereo not drawn) [Compound 235]	–	–	–	% Inhibition of platelet Activation (FcγRIIa): 30% and 49% and 54%
O=C(O)CNC(=O)CNC(=O)OCc1ccccc1 [Compound 236] (Cbz-Gly-Gly-OH)	–	–	–	% Inhibition of platelet Activation (FcγRIIa): 34% and 33% and 65%
O=C(O)c1cccc(C(=O)CSCC(=O)c2cccc(C(=O)O)c2)c1 [Compound 292, 1-(3-Carboxyphenyl)-2-[2-(3-carboxyphenyl)-2-oxoethylsulfanyl]ethanone]	520	520 µM	5600	–
O=C(O)c1cccc(SCC(=O)c2ccccc2)c1 [Compound 294]	80	< 190 µM and 135 µM and 155 µM and 80 µM	6000	–
O=C(O)/C=C/c1ccc(OCCc2ccccc2)cc1 [Compound 299, 4-Phenethyloxycinnamic acid]	410	410 µM	7200	–
O=C(O)c1sc2ccccc2c1OCc1ccccc1 [Compound 333, 3-Benzyloxy-1-benzo[b]thiophene-2-carboxylic acid]	520	520 µM	1600	–
Cc1c(C(C)(C)C)cc(/C=C(\C#N)C(=O)O)cc1C(C)(C)C [Compound 350]	290	290 µM	1300	–
C/C(=C1\SC(=S)N(CC(=O)O)C1=O)c1cccc(O)c1 [Compound 374, 5-(-Methyl-3-hydroxybenzylidine)rhodanine-3-acetic acid]	220	–	2000	–
C/C(=C(/S)C(=O)NCC(=O)O)c1cccc(O)c1 [Compound 383, [3-(3-Hydroxyphenyl)-2-mercaptobut-2-enoylamino]acetic add]	280	280 µM	1000	–
O=C(O)c1ccc(SCC(=O)c2ccccc2)cc1 [Compound 384, 4-[(2-oxo-2-phenylethyl)thio]benzoic acid]	170	170 µM	4800	–
N#Cc1cccc(C(=O)CSc2ccc(C(=O)O)cc2)c1 [Compound 385, 4-{[2-(3-cyanophenyl)-2-oxoethyl]thio}benzoic acid]	360	360 µM	6800	–
O=C(O)c1ccc(C(=O)CSc2ccccc2C(=O)O)cc1 [Compound 410, 2-{[2-(4-carboxyphenyl)-2-oxoethyl]thio}benzoic acid]	50	50 µM	6900	–
N#Cc1cccc(C(=O)CSc2ccccc2C(=O)O)c1 [Compound 411, 2-{[2-(3-cyanophenyl)-2-oxoethyl]thio}benzoic acid]	180	180 µM	7800	–
O=C(O)c1cccc(C(=O)CSc2ccccc2C(=O)O)c1 [Compound 412, 2-{[2-(3-carboxyphenyl)-2-oxoethyl]thio}benzoic add]	60	60 µM	7000	–

Second part, led by results:

IC50 (FcγRIIa; [2]) [µM]	IC50 (FcγRIIa; [3])	IC50 (HSA-FcγRIIa) [µM]	SMILES	other results
610	600 µM	12200	O=C(O)c1ccc2c(c1)C(=O)c1cc(C(=O)O)ccc1-2 [Compound 001]	–
–	230 µM	–	O=C(O)c1c(Cl)c2ccc([N+](=O)[O-])cc2[s+]1[O-] (stereo not drawn) [Compound 044, 3-Chloro-6-nitro-1-benzo[b]thiophene-S-oxo-2-carboxylic acid]	–
–	195 µM and 295 µM	–	COc1cccc2c(OC(C)C)c(C(=O)Nc3nnn[nH]3)sc12 [Compound 090, 3-isopropoxy-7-methoxy-N-(1H-1,2,3,4-tetrazol-5-yl)-1-benzo[b]thiophene-2-carboxamide]	–
–	435 µM	–	COc1ccc2sc(C(=O)Nc3nnn[nH]3)c(OC(C)C)c2c1[N+](=O)[O-] [Compound 092, 3-isopropoxy-4-nitro-5-methoxy-N-(1H-1,2,3,4-tetrazol-5-yl)-1-benzo[b]thiophene-2-carboxamide]	melting point: 236 to 238 °C
1300	–	9400	O=C(O)CCCCCNC(=O)OCc1ccccc1 [Compound 197]	–
250	240 µM	3000	N#Cc1cccc(C(=O)CSc2cccc(C(=O)O)c2)c1 [Compound 216, 3-[2-(3-Cyanophenyl)-2-oxoethylsulfanyl]benzoic acid]	–
320	360 µM and > 630 µM	6100	O=C(O)c1cccc(SCC(=O)c2cccc(C(=O)O)c2)c1 [Compound 217, 3-[2-Oxo-2-(3-carboxyphenyl)ethylsulfanyl]benzoic acid]	–
40	40 µM	6200	O=C(O)c1ccc(C(=O)/C=C/c2ccccc2)cc1 [Compound 237, 4-[(2E)-3-phenylprop-2-enoyl]benzoic acid]	–
270	270 µM	17500	O=C(/C=C/c1ccccc1C(=O)O)c1ccc[nH]1 [Compound 238, 2-[3-Oxo-3-(1H-pyrrol-2-yl)propenyl]benzoic acid]	–
330	330 µM	–	N#CCCCSc1cccc(C(=O)O)c1 [Compound 239, 3-(3-Cyanopropylsulfanyl)benzoic acid]	IC50 ELISA (HSA-FcγRIIa): -'ve
–	< 165 µM and 170 µM	–	COc1ccc2sc(C(=O)O)c(OC3CCCCC3)c2c1 [Compound 276, 3-Cyclohexyloxy-5-methoxy-1-benzo[b]thiophene-2-carboxylic acid]	melting point: 176 to 177 °C
